Reference: patent US20080039321A1, “Plant Growth Regulation” (priority 2004, published 2008)

Test system: wheat (Triticum aestivum, variety "TRISO")
Test: Root growth assay, seed treatment, wheat
Format: in vivo
Details: Root Growth of 100 is set as the standard, 16 (±2) days post treatment
Source text: Plant roots are a highly proliferative tissue that allows an easy accessible, cheap and short term screening method for plant growth regulators. The results obtained can easily be transferred to the overall effects on a plant of plant growth regulators identified by such a system. By using this root assay one is enabled to determine the effect of a seed treatment to root growth and/or germination and/or changes in habitat of germinated plants in order to identify the possible use as a yield enhancer. Two seeds of wheat (Triticum aestivum, variety “TRISO”) or 1 seed of maize (Zea mays, variety “LORENZO”) per hole in a plastic tray which contains an architecture of 8×13 holes were placed on compost soil covered with sand. These seeds were treated with 100 μl/hole, which creates an application volume of approx. 1200 l/ha, of a compound solution at active ingredient rates equivalent to 100, 10 and 1 g a.i./ha of each compound using an robotic application system (Lizzy Spray Robotics). Six replicates in a row of each compound and concentration were done. The outer rim of the above defined plastic tray was untreated to avoid false negative effects and the middle row (No. 7) was used as untreated control. The treated seeds were allowed to dry for approx. 4 hours and subsequently covered with sand and watered. The trays were stored in climate chambers with 14 hours lighting at a temperature of 24° C. (±2) at daytime and 16° C. (±2) at night and relative humidity (rH) of 60% and daily watered. Assessments were done 16 (±2) days post treatment by counting the germinated plants and assessing the phytotoxicity symptoms and percentage. In addition, the roots were washed out and the shoots were cut directly above the seed and the wet roots were placed on dry paper towels for approximately 30 minutes and weighted afterwards. This procedure provides a similar grade of moisture to the roots so that a comparison of the weights is possible. […]

For `Nc1nc(OCC23CC4CC(CC(C4)C2)C3)c2nc[nH]c2n1` [Compound 1.1, O6-Adamantylmethyl-9H-purin-2-ylamine], the “Root Growth” value (1 g a.i./ha) was 84, the “Root Growth” value (10 g a.i./ha) was 76 and the “Root Growth” value (100 g a.i./ha) was 141.
